Experimental data as given in patent US10538498B2, “1,3,4-oxadiazole sulfonamide derivative compounds as histone deacetylase 6 inhibitor, and the pharmaceutical composition comprising the same” (Chong Kun Dang Pharmaceutical Corp., priority 2015, dated 2020).

Assays:
[1] = biological target: T1, human recombinant HDAC1 (Homo sapiens, UniProt Q13547); experiment: HDAC1 enzyme activity inhibition assay (HDAC Fluorimetric Drug Discovery Kit); type: biochemical; settings: 0.3 μg enzyme, 10 μM substrate, 30° C., 60 minutes
T1 construct: purchased Enzo Life Science BML-SE456
T1 sequence (Q13547 whole entry): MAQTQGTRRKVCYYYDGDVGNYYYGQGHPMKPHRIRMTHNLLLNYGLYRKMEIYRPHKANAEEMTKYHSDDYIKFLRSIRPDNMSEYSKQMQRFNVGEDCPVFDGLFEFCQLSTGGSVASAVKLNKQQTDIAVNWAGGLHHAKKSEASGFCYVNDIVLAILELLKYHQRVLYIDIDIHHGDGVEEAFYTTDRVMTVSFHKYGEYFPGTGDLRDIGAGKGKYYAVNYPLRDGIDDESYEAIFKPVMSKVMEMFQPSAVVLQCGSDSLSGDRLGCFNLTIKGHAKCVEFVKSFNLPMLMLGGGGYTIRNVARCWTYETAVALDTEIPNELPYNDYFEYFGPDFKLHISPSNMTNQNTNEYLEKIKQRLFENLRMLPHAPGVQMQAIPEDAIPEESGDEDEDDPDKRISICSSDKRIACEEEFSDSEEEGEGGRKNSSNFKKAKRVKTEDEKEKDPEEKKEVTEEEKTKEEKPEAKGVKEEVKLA
How it was run: (§1)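 Fluorescence (Ex 360, Em 460) after 30 min developer step; IC50 from dose-response. Reaction: 0.3 μg recombinant enzyme, 10 μM Fluor de Lys-SIRT1 substrate, 5-fold compound dilutions, 60 min at 30° C. Same protocol for both isoforms.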

[2] = biological target: T2, human recombinant HDAC6 (Homo sapiens, UniProt Q9UBN7); experiment: HDAC6 enzyme activity inhibition assay (HDAC Fluorimetric Drug Discovery Kit); type: biochemical; settings: for HDAC6 selectivity (fold): HDAC1 vs HDAC6; for IC50: same protocol as the HDAC1 enzyme activity test
T2 construct: purchased Calbiochem 382180
T2 sequence (Q9UBN7 1-1215): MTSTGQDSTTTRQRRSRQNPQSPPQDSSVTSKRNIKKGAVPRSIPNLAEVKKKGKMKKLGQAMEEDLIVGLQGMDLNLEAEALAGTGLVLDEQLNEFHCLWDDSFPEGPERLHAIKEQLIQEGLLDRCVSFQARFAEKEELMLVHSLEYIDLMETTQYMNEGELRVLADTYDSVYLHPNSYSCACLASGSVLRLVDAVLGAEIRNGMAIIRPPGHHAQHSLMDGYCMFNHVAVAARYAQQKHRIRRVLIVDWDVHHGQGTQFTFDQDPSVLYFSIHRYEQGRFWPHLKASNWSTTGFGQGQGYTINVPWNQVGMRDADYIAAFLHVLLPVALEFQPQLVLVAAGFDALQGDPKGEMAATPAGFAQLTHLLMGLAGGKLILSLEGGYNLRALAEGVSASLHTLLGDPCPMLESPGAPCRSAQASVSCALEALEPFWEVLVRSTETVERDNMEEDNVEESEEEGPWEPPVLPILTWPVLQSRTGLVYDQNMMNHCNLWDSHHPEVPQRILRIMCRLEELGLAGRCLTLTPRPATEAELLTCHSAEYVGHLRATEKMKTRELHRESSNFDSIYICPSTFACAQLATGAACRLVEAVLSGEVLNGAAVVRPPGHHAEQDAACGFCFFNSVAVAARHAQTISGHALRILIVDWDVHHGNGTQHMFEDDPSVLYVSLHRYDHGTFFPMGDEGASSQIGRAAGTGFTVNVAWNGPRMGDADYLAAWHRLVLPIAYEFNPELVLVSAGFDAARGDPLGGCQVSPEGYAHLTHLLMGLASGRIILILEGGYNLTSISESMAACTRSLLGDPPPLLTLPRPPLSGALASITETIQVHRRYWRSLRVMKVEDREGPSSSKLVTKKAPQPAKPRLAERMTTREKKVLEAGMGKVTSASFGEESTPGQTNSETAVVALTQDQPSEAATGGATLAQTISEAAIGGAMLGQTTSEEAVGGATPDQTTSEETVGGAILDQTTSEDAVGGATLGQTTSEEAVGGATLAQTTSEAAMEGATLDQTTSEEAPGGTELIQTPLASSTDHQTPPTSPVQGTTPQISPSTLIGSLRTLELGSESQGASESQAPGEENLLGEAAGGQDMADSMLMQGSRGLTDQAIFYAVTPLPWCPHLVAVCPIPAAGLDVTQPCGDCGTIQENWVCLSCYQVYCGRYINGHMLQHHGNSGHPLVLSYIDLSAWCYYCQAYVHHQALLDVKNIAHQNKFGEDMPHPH
How it was run: as §1

IC50 [1] [µM]	HDAC6 selectivity (fold) [2] [fold]	IC50 [2] [µM]	SMILES
33.5	594	0.0563	O=S(=O)(C1CCN([C@H]2CC[C@H](F)CC2)CC1)N(Cc1ccc(-c2nnc(C(F)F)o2)cn1)c1cccc(Cl)c1 [Compound 11727, N-(3-chlorophenyl)-N-((5-(5-(difluoromethyl)-1,3,4-oxadiazol-2-yl)pyridin-2-yl)methyl)-1-((1r,4r)-4-fluorocyclohexyl)piperidine-4-sulfonamide]
21.6	453	0.0476	O=S(=O)(C1CCN([C@H]2CC[C@@H](F)CC2)CC1)N(Cc1ccc(-c2nnc(C(F)F)o2)cn1)c1cccc(Cl)c1 [Compound 11728, N-(3-chlorophenyl)-N-((5-(5-(difluoromethyl)-1,3,4-oxadiazol-2-yl)pyridin-2-yl)methyl)-1-((1s,4s)-4-fluorocyclohexyl)piperidine-4-sulfonamide]
24.5	445	0.0551	NC(=O)[C@@H]1CCCN1CCS(=O)(=O)N(Cc1ccc(-c2nnc(C(F)F)o2)cn1)c1ccccc1 [Compound 11847, (S)-1-(2-(N-((5-(5-(difluoromethyl)-1,3,4-oxadiazol-2-yl)pyridin-2-yl)methyl)-N-phenylsulfamoyl)ethyl)pyrrolidine-2-carboxamide]
38.9	661	0.0589	NC(=O)[C@H]1CCCN1CCS(=O)(=O)N(Cc1ccc(-c2nnc(C(F)F)o2)cn1)c1ccccc1 [Compound 11848, (R)-1-(2-(N-((5-(5-(difluoromethyl)-1,3,4-oxadiazol-2-yl)pyridin-2-yl)methyl)-N-phenylsulfamoyl)ethyl)pyrrolidine-2-carboxamide]
